Reference: patent US9513294B2, “Megastokes amino-triazolyl-BODIPY compounds and applications to live neuron staining and human serum albumin FA1 drug site probing” (National University of Singapore, priority 2012, dated 2016)
Blank lines part the entries; values can stand above or below the compound they belong to.

Experiments:
[1] = Absorbance and fluorescence emission spectra (SpectraMax M2); format: physicochemical; conditions: for λmax Absorp. (nm) / λmax Emission (nm): MKCA compound library; for λmax Absorp. (nm) / λmax Abs. (nm): absorbance maximum; for λmax Emission (nm) / λmax Em. (nm): fluorescence emission maximum; for λmax Abs. (nm) / λmax Em. (nm): MKAC compound library
Method: BDC-8 (Blue): absorbance λmax=473 nm, emission λmax=585 nm; MK101-8 (Green): absorbance λmax=474 nm, emission λmax=563 nm; MKHA374-48 (Yellow): absorbance λmax=468 nm, λem=557 nm. The corresponding spectra of a reported BODIPY (BD-27; Red) are also included for comparison: absorbance λmax=551 nm, emission λmax=568 nm. The structures of BDC-8, MK101-8, MKHA374-48 and BD-27 are also depicted.
(§1) ^1H-NMR, ^19F-NMR and ^13C-NMR spectra were recorded on Bruker ACF300 (300 MHz), DPX300 (300 MHz) and AMX500 (500 MHz) spectrometers. High resolution mass spectra (ESI) were obtained on a Finnigan/MAT 95XL-T spectrometer. Spectroscopic and quantum yield data were measured on a SpectraMax M2 spectrophotometer (Molecular Devices). Data analysis was performed using GraphPrism 5.0. Analytical characterization was performed on a HPLC-MS (Agilent-1200 series) with a DAD detector and a single quadrupole mass spectrometer (6130 series) with an ESI probe. Analytical HPLC method: eluents, A: H2O (0.1% HCOOH), B: CH3CN (0.1% HCOOH), gradient 5% B to 95% B (10 min). Reverse-phase Phenomenex C18 Luna column (4.6×50 mm^2, 3.5 […]), flow rate: 1 mL/min.

[2] = Quantum yield measurements versus Acridine Yellow in EtOH; format: physicochemical; conditions: for φ (quantum yield): excitation 460 nm; for φ (%): quantum yield
Method: as §1
Quantum yields were calculated by measuring the integrated emission area of the fluorescent spectra and comparing to the area measured for Acridine Yellow in EtOH when excited at 460 nm (Φfluorescence^AcridineYellow=0.47). Quantum yields for the amino-triazolyl-BODIPYs were calculated using the equation below, where F represents the area of fluorescent emission, η is the refractive index of the solvent, and Abs is absorbance at the excitation wavelength selected for standards and samples. Emission was integrated between 510 and 700 nm.

SMILES: Nc1ccc(C2=C3C=CC(N4CCCC4)=[N+]3[B-](F)(F)n3c2ccc3-n2cc(C3CC3)nn2)cc1 [MK215-4]
λmax Absorp. ([1]; MK library, Table 5): 470 nm
λmax Emission ([1]; MK library, Table 5): 576 nm
φ (quantum yield) ([2]; MK library, Table 5): 0.29%

SMILES: CC1CN(C2=[N+]3C(=C(c4ccc(N)cc4)c4ccc(-n5cc(CN(C)Cc6ccccc6)nn5)n4[B-]3(F)F)C=C2)CC(C)O1 (centres unmarked) [MK20-18]
λmax Absorp. ([1]; MK library, Table 5): 477 nm
λmax Emission ([1]; MK library, Table 5): 582 nm
φ (quantum yield) ([2]; MK library, Table 5): 0.23%

SMILES: COc1ccc(OC)c(CNC2=[N+]3C(=C(c4ccc(N)cc4)c4ccc(-n5cc(C6CC6)nn5)n4[B-]3(F)F)C=C2)c1 [MK181-4]
λmax Absorp. ([1]; MK library, Table 5): 474 nm
λmax Emission ([1]; MK library, Table 5): 566 nm
φ (quantum yield) ([2]; MK library, Table 5): 0.28%

SMILES: CCOc1ccccc1CNC1=[N+]2C(=C(c3ccc(N)cc3)c3ccc(-n4cc(CC(C)C)nn4)n3[B-]2(F)F)C=C1 [MK103-43]
λmax Absorp. ([1]; MK library, Table 5): 474 nm
λmax Emission ([1]; MK library, Table 5): 563 nm
φ (quantum yield) ([2]; MK library, Table 5): 1.30%

SMILES: O=C(CCl)Nc1ccc(C2=C3C=CC(N4CCCCC4)=[N+]3[B-](F)(F)n3c2ccc3-n2cc(C3(O)CCCC3)nn2)cc1 [BDCCA-67]
λmax Absorp. ([1]; BDCCA library, Table 4): 468 nm
λmax Emission ([1]; BDCCA library, Table 4): 590 nm
φ (quantum yield) ([2]; BDCCA library, Table 4): 0.7%

SMILES: COc1cccc(-c2cn(-c3ccc4n3[B-](F)(F)[N+]3=C(N5CCCCC5)C=CC3=C4c3ccc(NC(=O)CCl)cc3)nn2)c1 [BDCCA-27]
λmax Absorp. ([1]; BDCCA library, Table 4): 463 nm
λmax Emission ([1]; BDCCA library, Table 4): 552 nm
φ (quantum yield) ([2]; BDCCA library, Table 4): 2.3%

SMILES: Nc1ccc(C2=C3C=CC(N4CCCCC4)=[N+]3[B-](F)(F)n3c2ccc3-n2cc(CCc3ccccc3)nn2)cc1 [BDC-19]
λmax Absorp. ([1]; BDC library, Table 2): 476 nm
λmax Emission ([1]; BDC library, Table 2): 594 nm
φ (quantum yield) ([2]; BDC library, Table 2): 0.08%

SMILES: CCOc1ccccc1CNC1=[N+]2C(=C(c3ccc(NC(C)=O)cc3)c3ccc(-n4cc(CO)nn4)n3[B-]2(F)F)C=C1 [MKAC103-70]
λmax Abs. (nm) [1]: 464 nm
λmax Em. (nm) [1]: 558 nm
φ (%) ([2]; MKAC compound library): 15.35%

SMILES: CCCCCC(O)c1cn(-c2ccc3n2[B-](F)(F)[N+]2=C(NCc4cc(OC)ccc4OC)C=CC2=C3c2ccc(NC(C)=O)cc2)nn1 (racemic) [MKAC181-69]
λmax Abs. (nm) [1]: 465 nm
λmax Em. (nm) [1]: 561 nm
φ (%) ([2]; MKAC compound library): 16.50%

SMILES: CCCCCC(O)c1cn(-c2ccc3n2[B-](F)(F)[N+]2=C(NCc4cc(F)cc(F)c4)C=CC2=C3c2ccc(NC(C)=O)cc2)nn1 (centres unmarked) [MKAC412-69]
λmax Abs. (nm) [1]: 468 nm
λmax Em. (nm) [1]: 563 nm
φ (%) ([2]; MKAC compound library): 17.68%

SMILES: O=C(CCl)Nc1ccc(C2=C3C=CC(N4CCCCC4)=[N+]3[B-](F)(F)n3c2ccc3-n2cc(C3CCCC3)nn2)cc1 [BDCCA-5]
λmax Absorp. ([1]; BDCCA library, Table 4): 468 nm
λmax Emission ([1]; BDCCA library, Table 4): 588 nm
φ (quantum yield) ([2]; BDCCA library, Table 4): 0.9%

SMILES: CC(=O)Nc1ccc(C2=C3C=CC(N4CCCCC4)=[N+]3[B-](F)(F)n3c2ccc3-n2cc(CN(C)C)nn2)cc1 [BDCAC-2]
λmax Absorp. ([1]; BDCAC library, Table 3): 466 nm
λmax Emission ([1]; BDCAC library, Table 3): 591 nm
φ (quantum yield) ([2]; BDCAC library, Table 3): 0.8%

SMILES: CCCC(C)c1cn(-c2ccc3n2[B-](F)(F)[N+]2=C(N4CC(C)OC(C)C4)C=CC2=C3c2ccc(NC(=O)CCl)cc2)nn1 (centres unmarked) [MKCA20-3]
λmax Absorp. (nm) [1]: 467 nm
λmax Emission (nm) [1]: 581 nm
φ (%) ([2]; MKCA compound library): 3.15%

Second part, the compound after the results:

λmax Absorp. (nm) [1]: 467 nm
λmax Emission (nm) [1]: 563 nm
φ (%) ([2]; MKCA compound library): 41.81%
SMILES: CCCC(C)c1cn(-c2ccc3n2[B-](F)(F)[N+]2=C(NCc4cc(F)cc(F)c4)C=CC2=C3c2ccc(NC(=O)CCl)cc2)nn1 (centres unmarked) [MKCA412-3]

λmax Absorp. ([1]; MK library, Table 5): 475 nm
λmax Emission ([1]; MK library, Table 5): 566 nm
φ (quantum yield) ([2]; MK library, Table 5): 0.37%
SMILES: COc1ccc(OC)c(CNC2=[N+]3C(=C(c4ccc(N)cc4)c4ccc(-n5cc(CC(C)C)nn5)n4[B-]3(F)F)C=C2)c1 [MK181-43]

λmax Absorp. ([1]; MK library, Table 5): 474 nm
λmax Emission ([1]; MK library, Table 5): 564 nm
φ (quantum yield) ([2]; MK library, Table 5): 0.85%
SMILES: COc1ccc(OC)c(CNC2=[N+]3C(=C(c4ccc(N)cc4)c4ccc(-n5cc(CCc6ccccc6)nn5)n4[B-]3(F)F)C=C2)c1 [MK181-19]

λmax Abs. (nm) [1]: 467 nm
λmax Em. (nm) [1]: 583 nm
φ (%) ([2]; MKAC compound library): 2.13%
SMILES: CC(=O)Nc1ccc(C2=C3C=CC(N4CC(C)OC(C)C4)=[N+]3[B-](F)(F)n3c2ccc3-n2cc(CN(C)Cc3ccccc3)nn2)cc1 (centres unmarked) [MKAC20-18]

λmax Absorp. (nm) [1]: 465 nm
λmax Emission (nm) [1]: 564 nm
SMILES: CCCC(C)c1cn(-c2ccc3n2[B-](F)(F)[N+]2=C(NCc4cc(OC)ccc4OC)C=CC2=C3c2ccc(NC(=O)CCl)cc2)nn1 (centres unmarked) [MKCA181-3]
